Measurements published in US9695155B2, “Herbicidal substituted pyrimidinyloxy benzene compounds” (E. I. DU PONT DE NEMOURS AND COMPANY, priority 2013, dated 2017).

Columns and labels:
pigweed = test: Test C postemergence; type: in vivo, Amaranthus retroflexus; settings: for Plant response rating (0 to 100), Pigweed: 16 g ai/ha, 0 is no effect, 100 is complete control; for Pigweed plant response rating: 31 g ai/ha, 13 to 15 days; for Pigweed plant response rating / Plant response rating, Pigweed: scale 0 to 100 (0 no effect, 100 complete control)
How it was run: (§1)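 Greenhouse herbicide screen. Pre: seeded loam/sand, sprayed at planting. Post: 1–4 leaf plants (2–18 cm) in peat-based mix. Formulation: solvent mixture + surfactant, non-phytotoxic. Readout: visual % control vs untreated, 13–15 d; dash = not tested.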

corn [1] = test: Test A postemergence; type: in vivo, Zea mays; settings: for Corn plant response rating: 125 g ai/ha
How it was run: (§2)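 Injury scores run from 0, no effect, to 100, complete control, judged by eye against untreated plants roughly 10 days after treatment. Chemicals carried a surfactant in a non-phytotoxic solvent and went onto loam–sand soil preemergence or onto one- to two-leaf seedlings postemergence.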

Heteranthera limosa = test: Test B flooded paddy test; type: in vivo; settings: Flood, 250 g ai/ha; 0 to 100 scale where 0 is no effect and 100 is complete control
How it was run: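 Visual ratings on a 0 to 100 scale, where 100 means complete control, compared treated plants with controls after 13 to 15 days in a greenhouse. Treatment went into paddy water 3 cm deep over the soil, applied to plants at the 2-leaf stage.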

Italian ryegrass = test: Test C preemergence; type: in vivo, Lolium multiflorum; settings: preemergence
How it was run: as §1

giant foxtail = test: Test A postemergence; type: in vivo, Setaria faberii; settings: for Foxtail, Giant plant response rating: 125 g ai/ha
How it was run: as §2

corn [2] = test: Test C postemergence; type: in vivo, Zea mays; settings: for Plant response rating (0 to 100), Corn: 16 g ai/ha, 0 is no effect, 100 is complete control; for Corn plant response rating: 31 g ai/ha, 13 to 15 days; for Corn plant response rating / Plant response rating, Corn: scale 0 to 100 (0 no effect, 100 complete control)
How it was run: as §1

ragweed = test: Test C preemergence; type: in vivo, Ambrosia elatior; settings: preemergence
How it was run: as §1

wild oat = test: Test C postemergence; type: in vivo, Avena fatua; settings: for Plant response rating (0 to 100), Oat, Wild: 16 g ai/ha, 0 is no effect, 100 is complete control; for Oat, Wild plant response rating: 31 g ai/ha, 13 to 15 days; for Oat, Wild plant response rating / Plant response rating, Oat, Wild: scale 0 to 100 (0 no effect, 100 complete control)
How it was run: as §1

oilseed rape = test: Test C preemergence; type: in vivo, Brassica napus; settings: preemergence
How it was run: as §1

kochia = test: Test C postemergence; type: in vivo, Kochia scoparia; settings: for Plant response rating (0 to 100), Kochia: 16 g ai/ha, 0 is no effect, 100 is complete control; for Kochia plant response rating: 31 g ai/ha, 13 to 15 days; for Kochia plant response rating / Plant response rating, Kochia: scale 0 to 100 (0 no effect, 100 complete control)
How it was run: as §1

morningglory = test: Test C postemergence; type: in vivo, Ipomoea coccinea; settings: for Plant response rating (0 to 100), Morningglory: 16 g ai/ha, 0 is no effect, 100 is complete control; for Morningglory plant response rating: 31 g ai/ha, 13 to 15 days; for Morningglory plant response rating / Plant response rating, Morningglory: scale 0 to 100 (0 no effect, 100 complete control)
How it was run: as §1

barnyardgrass = test: Test A preemergence; type: in vivo, Echinochloa crus-galli; settings: for Plant response rating, Barnyardgrass: 125 g ai/ha
How it was run: as §2

[3] = 125 g ai/ha, postemergence, visual rating
[4] = 0 to 100 scale where 0 is no effect and 100 is complete control
[5] = 500 g ai/ha, 0 to 100 scale where 0 is no effect and 100 is complete control
[6] = 16 g ai/ha, scale 0 to 100 (0 no effect, 100 complete control)
[7] = 62 g ai/ha, scale 0 (no effect) to 100 (complete control)
[8] = 125 g ai/ha, scale 0 (no effect) to 100 (complete control)
[9] = 1000 g ai/ha, 0 to 100 scale, 0 no effect, 100 complete control

SMILES	Plant response rating (0 to 100), Pigweed (pigweed; postemergence)	Plant response rating, Pigweed (pigweed; [3])	Plant response rating, Pigweed (pigweed; Postemergence, 62 g ai/ha)	Plant response rating, Ducksalad (Heteranthera limosa)	Ryegrass, Italian plant response rating (Italian ryegrass; [6])	Ryegrass, Italian plant response rating (Italian ryegrass; [7])	Ryegrass, Italian plant response rating (Italian ryegrass; [8])	Plant response rating (0 to 100), Corn (corn [2]; postemergence)	Plant response rating, Corn (corn [2]; [3])	Plant response rating, Corn (corn [2]; Postemergence, 62 g ai/ha)	Ragweed plant response rating (ragweed; [6])	Ragweed plant response rating (ragweed; [7])	Ragweed plant response rating (ragweed; [8])	Plant response rating (0 to 100), Oat, Wild (wild oat; postemergence)	Plant response rating, Oat, Wild (wild oat; [3])	Plant response rating, Oat, Wild (wild oat; Postemergence, 62 g ai/ha)	Oilseed Rape plant response rating (oilseed rape; [6])	Oilseed Rape plant response rating (oilseed rape; [7])	Oilseed Rape plant response rating (oilseed rape; [8])	Plant response rating (0 to 100), Kochia (kochia; postemergence)	other results
CCCOc1cnn(-c2c(C#N)cccc2Oc2ncc(Cl)cn2)c1 [Compound 150]	40	65	55	90	0	30	50	5	10	10	0	25	55	5	5	5	0	90	100	50	Pigweed plant response rating (pigweed; postemergence, visual rating): 55; Corn plant response rating (corn [1]; [4]): 50; Plant response rating, Corn (corn [1]; [5]): 90; Foxtail, Giant plant response rating (giant foxtail; [4]): 100; Plant response rating, Foxtail, Giant (giant foxtail; [5]): 100; Corn plant response rating (corn [2]; postemergence, visual rating): 10; Oat, Wild plant response rating (wild oat; postemergence, visual rating): 5; Kochia plant response rating (kochia; postemergence, visual rating): 55; Plant response rating, Kochia (kochia; [3]): 85; Plant response rating, Kochia (kochia; Postemergence, 62 g ai/ha): 55; Plant response rating (0 to 100), Morningglory (morningglory; postemergence): 40; Morningglory plant response rating (morningglory; postemergence, visual rating): 60; Plant response rating, Morningglory (morningglory; [3]): 80; Plant response rating, Morningglory (morningglory; Postemergence, 62 g ai/ha): 65; Plant response rating, Barnyardgrass (barnyardgrass; [4]): 90; Barnyardgrass plant response rating (barnyardgrass; [5]): 100
Cc1cnc(Oc2cccc(C#N)c2-n2cc(I)cn2)nc1 [Compound 136]	45	55	55	70	0	0	15	0	5	0	0	20	70	0	5	5	0	50	100	5	Corn plant response rating (corn [1]; [4]): 10; Plant response rating, Corn (corn [1]; [5]): 60; Foxtail, Giant plant response rating (giant foxtail; [4]): 30; Plant response rating, Foxtail, Giant (giant foxtail; [5]): 90; Plant response rating, Kochia (kochia; [3]): 70; Plant response rating, Kochia (kochia; Postemergence, 62 g ai/ha): 60; Plant response rating (0 to 100), Morningglory (morningglory; postemergence): 5; Plant response rating, Morningglory (morningglory; [3]): 40; Plant response rating, Morningglory (morningglory; Postemergence, 62 g ai/ha): 50; Plant response rating, Barnyardgrass (barnyardgrass; [4]): 60; Barnyardgrass plant response rating (barnyardgrass; [5]): 100
FCc1cn(-c2c(F)cccc2Oc2ncc(Cl)cn2)nn1 [Compound 154]	25	75	60	80	0	20	25	0	0	0	75	95	90	0	0	0	98	100	100	50	Pigweed plant response rating (pigweed; postemergence, visual rating): 30; Plant response rating, Corn (corn [1]; [9]): 90; Plant response rating, Foxtail, Giant (giant foxtail; [9]): 100; Corn plant response rating (corn [2]; postemergence, visual rating): 0; Oat, Wild plant response rating (wild oat; postemergence, visual rating): 0; Kochia plant response rating (kochia; postemergence, visual rating): 50; Plant response rating, Kochia (kochia; [3]): 80; Plant response rating, Kochia (kochia; Postemergence, 62 g ai/ha): 80; Plant response rating (0 to 100), Morningglory (morningglory; postemergence): 55; Morningglory plant response rating (morningglory; postemergence, visual rating): 65; Plant response rating, Morningglory (morningglory; [3]): 80; Plant response rating, Morningglory (morningglory; Postemergence, 62 g ai/ha): 65; Barnyardgrass plant response rating (barnyardgrass; 1000 g ai/ha, 0 to 100 scale, 0 no effect, 100 complete control, approx. 10 days): 100
